Values of other authors as cited in patent US5304296A, “Glass pH electrodes” (National Power PLC, priority 1990, dated 1994).

NC(=O)CN(CC(=O)O)CC(=O)O [ADA, N-(2-acetamido)iminodiacetic acid]
pKa at 20° C.: 6.62
